System: 186277-243-T-J2-PDC complex spheroid viability
Experiment: Anticancer human tumor 186277-243-T-J2-PDC patient-derived colon adenocarcinoma cell line growth inhibition [POLQ]
Conditions: for IC50: curve of first compound; for viability, T/C: stronger effect = lower value
Outline: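 Three-cell-type spheroids modelling solid tumor plus stroma served as the readout system; POL inhibitors were tested individually and in combination, concentration ranges set by clinical Cmax where known.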

[1] = second compound 0.0316 µM, first compound 0.0316 µM
[2] = second compound 0.0316 µM, first compound 0.1 µM
[3] = second compound 0.0316 µM, first compound 0.316 µM
[4] = second compound 0.0316 µM, first compound 1 µM
[5] = second compound 0.0316 µM, first compound 3.16 µM
[6] = second compound 0.0316 µM, first compound 10 µM
[7] = second compound 0.1 µM, first compound 0.0316 µM
[8] = second compound 0.1 µM, first compound 0.1 µM
[9] = second compound 0.1 µM, first compound 0.316 µM
[10] = second compound 0.1 µM, first compound 1 µM
[11] = second compound 0.1 µM, first compound 3.16 µM
[12] = second compound 0.1 µM, first compound 10 µM
[13] = second compound 0.316 µM, first compound 0.0316 µM
[14] = second compound 0.316 µM, first compound 0.1 µM
[15] = second compound 0.316 µM, first compound 0.316 µM
[16] = second compound 0.316 µM, first compound 1 µM
[17] = second compound 0.316 µM, first compound 3.16 µM
[18] = second compound 0.316 µM, first compound 10 µM
[19] = second compound 1 µM, first compound 0.0316 µM
[20] = second compound 1 µM, first compound 0.1 µM
[21] = second compound 1 µM, first compound 0.316 µM
[22] = second compound 1 µM, first compound 1 µM
[23] = second compound 1 µM, first compound 3.16 µM
[24] = second compound 1 µM, first compound 10 µM
[25] = second compound 3.16 µM, first compound 0.0316 µM
[26] = second compound 3.16 µM, first compound 0.1 µM
[27] = second compound 3.16 µM, first compound 0.316 µM
[28] = second compound 3.16 µM, first compound 1 µM
[29] = second compound 3.16 µM, first compound 3.16 µM
[30] = second compound 3.16 µM, first compound 10 µM
[31] = second compound 10 µM, first compound 0.0316 µM
[32] = second compound 10 µM, first compound 0.1 µM
[33] = second compound 10 µM, first compound 0.316 µM
[34] = second compound 10 µM, first compound 1 µM
[35] = second compound 10 µM, first compound 3.16 µM
[36] = second compound 10 µM, first compound 10 µM
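Further: spheroids exposed to compounds for seven days.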
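Wherever viability, T/C is given: 100% = DMSO vehicle control viability.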

CC(C)n1c(=O)n(C)c2cnc3cc(F)c(-c4ccc(OCCCN5CCCCC5)nc4)cc3c21 + Nc1ccc(C#CCN(C(=O)Cc2ncc(C(F)(F)F)cc2C(F)(F)F)c2ccc(F)cc2)nn1
IC50 (second compound 0.0316 µM): > 10 µM
IC50 (second compound 0.1 µM): > 10 µM
IC50 (second compound 0.316 µM): > 10 µM
IC50 (second compound 1 µM): > 10 µM
IC50 (second compound 3.16 µM): > 10 µM
IC50 (second compound 10 µM): > 10 µM
viability, T/C [1]: 92.8%
viability, T/C [2]: 94%
viability, T/C [3]: 98.2%
viability, T/C [4]: 95.6%
viability, T/C [5]: 105%
viability, T/C [6]: 108%
viability, T/C [7]: 95.3%
viability, T/C [8]: 112%
viability, T/C [9]: 104%
viability, T/C [10]: 102%
viability, T/C [11]: 98.2%
viability, T/C [12]: 105%
viability, T/C [13]: 92.7%
viability, T/C [14]: 90.4%
viability, T/C [15]: 127%
viability, T/C [16]: 102%
viability, T/C [17]: 114%
viability, T/C [18]: 109%
viability, T/C [19]: 98.8%
viability, T/C [20]: 112%
viability, T/C [21]: 114%
viability, T/C [22]: 99.1%
viability, T/C [23]: 113%
viability, T/C [24]: 113%
viability, T/C [25]: 91.7%
viability, T/C [26]: 98.3%
viability, T/C [27]: 109%
viability, T/C [28]: 102%
viability, T/C [29]: 119%
viability, T/C [30]: 105%
viability, T/C [31]: 85.7%
viability, T/C [32]: 95.4%
viability, T/C [33]: 98.7%
viability, T/C [34]: 91.8%
viability, T/C [35]: 105%
viability, T/C [36]: 102%

C=CC(=O)N1CCN(c2nc(=O)n(-c3c(C)ccnc3C(C)C)c3nc(-c4c(O)cccc4F)c(F)cc23)C(C)C1 (stereo not drawn) + COC1C(OC(N)=O)C(O)C(Oc2ccc3c(O)c(NC(=O)c4ccc(O)c(CC=C(C)C)c4)c(=O)oc3c2C)OC1(C)C
IC50 (second compound 0.0316 µM): > 10 µM
IC50 (second compound 0.1 µM): > 10 µM
IC50 (second compound 0.316 µM): > 10 µM
IC50 (second compound 1 µM): > 10 µM
IC50 (second compound 3.16 µM): > 10 µM
IC50 (second compound 10 µM): > 10 µM
viability, T/C [1]: 94%
viability, T/C [2]: 88.7%
viability, T/C [3]: 111%
viability, T/C [4]: 88.2%
viability, T/C [5]: 102%
viability, T/C [6]: 85.9%
viability, T/C [7]: 90.2%
viability, T/C [8]: 91.8%
viability, T/C [9]: 98.3%
viability, T/C [10]: 90.2%
viability, T/C [11]: 87%
viability, T/C [12]: 97%
viability, T/C [13]: 98%
viability, T/C [14]: 102%
viability, T/C [15]: 91.5%
viability, T/C [16]: 104%
viability, T/C [17]: 110%
viability, T/C [18]: 98.1%
viability, T/C [19]: 97.3%
viability, T/C [20]: 93.9%
viability, T/C [21]: 101%
viability, T/C [22]: 90.7%
viability, T/C [23]: 96.6%
viability, T/C [24]: 97.7%
viability, T/C [25]: 93.5%
viability, T/C [26]: 94.5%
viability, T/C [27]: 99.3%
viability, T/C [28]: 101%
viability, T/C [29]: 87.5%
viability, T/C [30]: 87.3%
viability, T/C [31]: 92.9%
viability, T/C [32]: 104%
viability, T/C [33]: 92.3%
viability, T/C [34]: 84.5%
viability, T/C [35]: 116%
viability, T/C [36]: 83.3%

COc1ccc([C@@H](O)c2cc(-c3ncnc4cc(N5CCOCC5)ccc34)c(F)cc2Cl)nn1 + Cc1cccc(N(C)C(=O)C2C(O)CCN2c2nc(C)cc(C(F)(F)F)c2C#N)c1
IC50 (second compound 0.0316 µM): 5.9 µM
IC50 (second compound 0.1 µM): 5.56 µM
IC50 (second compound 0.316 µM): 6.69 µM
IC50 (second compound 1 µM): 6.39 µM
IC50 (second compound 3.16 µM): 5.81 µM
IC50 (second compound 10 µM): 6.17 µM
viability, T/C [1]: 102%
viability, T/C [2]: 105%
viability, T/C [3]: 94.9%
viability, T/C [4]: 110%
viability, T/C [5]: 74.3%
viability, T/C [6]: 29.4%
viability, T/C [7]: 101%
viability, T/C [8]: 112%
viability, T/C [9]: 109%
viability, T/C [10]: 97.9%
viability, T/C [11]: 71.3%
viability, T/C [12]: 28.1%
viability, T/C [13]: 90.4%
viability, T/C [14]: 105%
viability, T/C [15]: 101%
viability, T/C [16]: 104%
viability, T/C [17]: 86.2%
viability, T/C [18]: 30.4%
viability, T/C [19]: 100%
viability, T/C [20]: 107%
viability, T/C [21]: 97%
viability, T/C [22]: 98.1%
viability, T/C [23]: 81%
viability, T/C [24]: 30%
viability, T/C [25]: 107%
viability, T/C [26]: 114%
viability, T/C [27]: 109%
viability, T/C [28]: 99.4%
viability, T/C [29]: 76.9%
viability, T/C [30]: 26.2%
viability, T/C [31]: 101%
viability, T/C [32]: 102%
viability, T/C [33]: 125%
viability, T/C [34]: 109%
viability, T/C [35]: 84.3%
viability, T/C [36]: 25.1%

CC1COCCN1c1cc(C2(S(C)(=N)=O)CC2)nc(-c2ccnc3[nH]ccc23)n1 (stereo not drawn) + Cc1cccc(N(C)C(=O)C2C(O)CCN2c2nc(C)cc(C(F)(F)F)c2C#N)c1
IC50 (second compound 0.0316 µM): 0.861 µM
IC50 (second compound 0.1 µM): 0.8 µM
IC50 (second compound 0.316 µM): 0.827 µM
IC50 (second compound 1 µM): 0.842 µM
IC50 (second compound 3.16 µM): 0.799 µM
IC50 (second compound 10 µM): 0.784 µM
viability, T/C [1]: 102%
viability, T/C [2]: 102%
viability, T/C [3]: 99%
viability, T/C [4]: 42.6%
viability, T/C [5]: 8.14%
viability, T/C [6]: 6.1%
viability, T/C [7]: 99.1%
viability, T/C [8]: 103%
viability, T/C [9]: 109%
viability, T/C [10]: 37.1%
viability, T/C [11]: 8.3%
viability, T/C [12]: 5.32%
viability, T/C [13]: 117%
viability, T/C [14]: 105%
viability, T/C [15]: 103%
viability, T/C [16]: 39.6%
viability, T/C [17]: 7.67%
viability, T/C [18]: 6.8%
viability, T/C [19]: 97%
viability, T/C [20]: 104%
viability, T/C [21]: 107%
viability, T/C [22]: 40.7%
viability, T/C [23]: 7.51%
viability, T/C [24]: 5.6%
viability, T/C [25]: 108%
viability, T/C [26]: 108%
viability, T/C [27]: 106%
viability, T/C [28]: 35.9%
viability, T/C [29]: 8.67%
viability, T/C [30]: 6.42%
viability, T/C [31]: 102%
viability, T/C [32]: 111%
viability, T/C [33]: 108%
viability, T/C [34]: 34.7%
viability, T/C [35]: 7.11%
viability, T/C [36]: 5.36%
